Series [1] concerns Mus musculus. Nature of the series: Acute toxicity in Kunming mouse assessed as gross lesions at 2000 mg/kg, ig after 1 week. The note with it: in vivo, po, 168 h. The class given is organism-based.
Series [2] relates to Rattus norvegicus. Kind of series: Tmax in Sprague-Dawley rat at 2 mg/kg, iv by LC-MS analysis. The class given is ADME, organism-based. Particulars: in vivo.
Series [3] can be described thus: in vitro. Particulars: chicken, chicken embryo fibroblasts.
Series [4] in a line: in vitro. Particulars: human, plasma.
Series [5] relates to Influenza A virus. Nature of the series: Antiviral activity against Influenza A virus H5N2 infected in specific pathogen free embryonated egg assessed as survival rate at 0.039 mM preincubated for 1 hr prior to inoculation measured after 72 hrs (reference value: 0%). The class given is functional.
Series [6] concerns Rattus norvegicus. Kind of series: Volume of distribution in Sprague-Dawley rat at 2 mg/kg, iv by LC-MS analysis. The note with it: in vivo. The class given is ADME, organism-based.
The test system of series [7] is Influenza A virus. Nature of the series: Antiviral activity against Influenza A virus H5N2 infected in specific pathogen free embryonated egg assessed as survival rate at 0.625 mM preincubated for 1 hr prior to inoculation measured after 48 hrs (reference value: 0%). Type of series: functional.
Series [8] deals with Influenza A virus. Kind of series: microbe, parasite or virus in culture. The note with it: A/Puerto Rico/8/1934(H1N1), MDCK, 48 h.
Series [9] can be described thus: Oral bioavailability in Sprague-Dawley rat at 20 mg/kg by LC-MS analysis. Type of series: ADME, organism-based. Particulars: in vivo.
The subject of series [10] is Influenza A virus. Nature of the series: Antiviral activity against Influenza A virus H5N2 infected in specific pathogen free embryonated egg assessed as survival rate at 0.039 mM preincubated for 1 hr prior to inoculation measured after 48 hrs (reference value: 0%). Type of series: functional.
A short description of series [11]: in vitro. Particulars: human, plasma. This is another data set of the same source.
Series [12] is described as follows: in vitro. Particulars: human, liver microsomes. (Microsomes from liver hold many membrane-bound enzymes, among them those of drug oxidation.)
Series [13] is described as follows: in vitro. Particulars: human, liver microsomes. The source holds these as a separate data set.
The subject of series [14] is Rattus norvegicus. Kind of series: Clearance in Sprague-Dawley rat at 2 mg/kg, iv by LC-MS analysis. The class given is ADME, organism-based. The note with it: in vivo.
The subject of series [15] is Influenza A virus. Kind of series: Antiviral activity against Influenza A virus H5N2 infected in specific pathogen free embryonated egg assessed as survival rate at 2.5 mM preincubated for 1 hr prior to inoculation measured after 72 hrs (reference value: 0%). Type of series: functional.
Series [16] is described as follows: in vitro. The note with it: human, plasma. The source holds these as a separate data set.
Series [17] relates to Influenza A virus. Kind of series: Antiviral activity against Influenza A virus H5N2 infected in specific pathogen free embryonated egg assessed as survival rate at 10 mM preincubated for 1 hr prior to inoculation measured after 72 hrs (reference value: 0%). The class given is functional.
The test system of series [18] is Rattus norvegicus. Nature of the series: Half life in Sprague-Dawley rat at 2 mg/kg, iv by LC-MS analysis. The class given is ADME, organism-based. The note with it: in vivo.
In series [19] the test system is Influenza A virus. Nature of the series: Antiviral activity against Influenza A virus H5N2 infected in specific pathogen free embryonated egg assessed as survival rate at 2.5 mM preincubated for 1 hr prior to inoculation measured after 48 hrs (reference value: 0%). Type of series: functional.
Series [20] can be described thus: in vitro. The note with it: human, liver microsomes. The source holds these as a separate data set.
For series [21], the system named is Rattus norvegicus. Nature of the series: Cmax in Sprague-Dawley rat at 20 mg/kg, po by LC-MS analysis. Particulars: in vivo. On the set-up: dose 20 mg/kg, route oral. The class given is ADME, organism-based.
Series [22] concerns Rattus norvegicus. Kind of series: Bioavailability in Sprague-Dawley rat at 2 mg/kg, iv by LC-MS analysis. The class given is ADME, organism-based. Particulars: in vivo.
Series [23] deals with Influenza A virus. Kind of series: Antiviral activity against Influenza A virus H5N2 infected in specific pathogen free embryonated egg assessed as survival rate at 0.156 mM preincubated for 1 hr prior to inoculation measured after 72 hrs (reference value: 0%). Type of series: functional.
A short description of series [24]: in vitro. Particulars: human, liver microsomes. The source holds these as a separate data set.
A further series relates to Influenza B virus. Particulars: mdck.
Series [25] in a line: in vitro. The note with it: dog, MDCK cells.
A short description of series [26]: MRT (0 to infinity) in Sprague-Dawley rat at 2 mg/kg, iv by LC-MS analysis. The class given is ADME, organism-based. Particulars: in vivo.
Series [27] is described as follows: in vitro. The note with it: human, plasma. This is another data set of the same source.
Series [28] is filed under the species Rattus norvegicus. Particulars: in vivo, iv, 2 mg/kg.
The test system of series [29] is Influenza A virus. Nature of the series: Antiviral activity against Influenza A virus H5N2 infected in specific pathogen free embryonated egg assessed as survival rate at 0.625 mM preincubated for 1 hr prior to inoculation measured after 72 hrs (reference value: 0%). The class given is functional.
Series [30] relates to Rattus norvegicus. Kind of series: Tmax in Sprague-Dawley rat at 20 mg/kg, po by LC-MS analysis. Type of series: ADME, organism-based. Particulars: in vivo.
Series [31] has as its system Mus musculus. Nature of the series: Acute toxicity in Kunming mouse at 2000 mg/kg, ig after 1 week. The class given is organism-based. Particulars: in vivo, po, 168 h.
Series [32] is filed under the species Rattus norvegicus. The note with it: in vivo, po, 20 mg/kg.
A short description of series [33]: in vivo. The note with it: Sprague-Dawley, rat, iv, 2 mg/kg.
Series [34] in a line: MRT (0 to infinity) in Sprague-Dawley rat at 20 mg/kg, po by LC-MS analysis. The class given is ADME, organism-based. Particulars: in vivo.
Series [35] deals with Influenza A virus. Kind of series: Antiviral activity against Influenza A virus H5N2 infected in specific pathogen free embryonated egg assessed as survival rate at 10 mM preincubated for 1 hr prior to inoculation measured after 48 hrs (reference value: 0%). The class given is functional.
Series [36] deals with Rattus norvegicus. Kind of series: Half life in Sprague-Dawley rat at 20 mg/kg, po by LC-MS analysis. Type of series: ADME, organism-based. The note with it: in vivo.
Series [37] is described as follows: in vitro. Particulars: human, plasma. This is another data set of the same source.
The subject of series [38] is Influenza A virus. Nature of the series: Antiviral activity against Influenza A virus H5N2 infected in specific pathogen free embryonated egg assessed as survival rate at 0.156 mM preincubated for 1 hr prior to inoculation measured after 48 hrs (reference value: 0%). The class given is functional.
Series [39] can be described thus: in vivo. The note with it: Sprague-Dawley, rat, po, 20 mg/kg.
The test system of series [40] is Influenza A virus. Kind of series: microbe, parasite or virus in culture. Particulars: MDCK, 48 h.
The conditions of series [41]: human, microsomes, 20 min.

Molecules are shown by their SMILES. pEC50: −log10 of the molar value. Some results are limits rather than exact numbers.

In general, Tmax refers to the time from dosing to the highest level. As usually defined, the Vd is a proportionality between amount in the body and measured concentration, not a real space. By pEC50 is commonly meant the EC50 on a negative log10 scale, so that one unit is a factor of ten. A low value points to a high EC50. By bioavailability is commonly meant the share of a dose that reaches the circulation, judged against a reference dose that is usually intravenous. Lower therefore signals poor availability. As usually defined, the microsomal CLint is a measure of how fast metabolising enzymes remove a compound, apart from limits set by blood flow. What is called half-life is the time in which the quantity being followed falls by half. Read a low half-life as rapid decline. As a reminder, the Cmax is the maximum level reached in the sampled fluid or tissue. A word on the MRT inf: it is a mean duration of stay, worked out from the concentration-time curve. The AUC is the area under the concentration-time curve, a measure of exposure. A high value points to high exposure. The AUC(0-t) is the area under the concentration-time curve up to a stated or last time point. Lower therefore signals less exposure. `CCC(CC)O[C@@H]1C=C(C(=O)O)C[C@H](NCc2ccc(Sc3ccccc3)cc2)[C@H]1NC(C)=O`: the Activity result in the series with Mus musculus [1] and in the series on Mus musculus [31] was “Non-Toxic” each time. Besides, the time to peak (Tmax) stood at 4.98 min with Rattus norvegicus [2] and 0.83 h with Rattus norvegicus [30]. For the same molecule, the CC50 at 48 h in the series “in vitro [3]” is over 200 µM; in the series “in vitro [25]”, over 250 µM. Further, the fraction remaining at 0.5 h, 2 µM in “in vitro [4]” was 100%. Besides, the survival at 39 µM with Influenza A virus [5] and with Influenza A virus [10] was 0% each time. The molecule further showed a Vd in the series on Rattus norvegicus [6] of 3.51 L/kg. Moreover, the values for the survival at 625 µM with Influenza A virus [7] and in the series on Influenza A virus [29] were 60% and 0%, respectively. In addition, the pEC50 in the series with Influenza A virus [8] was 7.22; with Influenza B virus, 4.72; in the series on Influenza A virus [40], 4.15. The same molecule came in with a bioavailability in series [9] of 10.3%. In addition, the share remaining at 1 h, 2 µM in the series “in vitro [11]” was found to be 100%. The results for the amount remaining at 1 h, 2 uL in “in vitro [12]” and in the series “in vitro [24]” were 115% and 101%, respectively. For the same molecule, the microsomal CLint at 20 min, 2 uL in the series “in vitro [13]” was under 9.6 µL/min/mg. This molecule also displayed a CL in the series with Rattus norvegicus [14] of 1.41 mL/h/kg. Further, the survival at 2500 µM in the series with Influenza A virus [15] worked out at 20%; in the series with Influenza A virus [19], 80%. For the same molecule, in “in vitro [16]”, the share remaining at 10 min, 2 µM was found to be 102%. For the same molecule, the survival at 10000 µM in the series on Influenza A virus [17] stood at 60%; in the series with Influenza A virus [35] it was 100%. The t1/2 came to 1.76 h in the series on Rattus norvegicus [18] and 3.82 h in the series with Rattus norvegicus [36]. Besides, the half-life at 2 uL in “in vitro [20]” is over 2.42 h. Moreover, in the series with Rattus norvegicus [21], the Cmax turned out to be 407 µg/mL. The molecule further returned a F in the series with Rattus norvegicus [22] of 100%. For the same molecule, the survival at 156 µM in the series on Influenza A virus [23] and with Influenza A virus [38] was 0% throughout. The MRT inf in [26] amounted to 2.03 h; in series [34] it was 4.05 h. Besides, in “in vitro [27]”, the share remaining at 2 h, 2 µM is 91.6%. The results for the area under the curve (AUC) in the series filed under Rattus norvegicus [28] and in the series filed under Rattus norvegicus [32] were 1464.41 ng·h/mL and 1558.63 ng·h/mL, respectively. Further, the exposure AUC(0-t) in the series “in vivo [33]” was found to be 1460 ng·h/mL; in the series “in vivo [39]” it was 1500 ng·h/mL. In addition, the half-life at 2 µM in the series “in vitro [37]” is over 4.82 h.
The molecule `O=C(O)Cc1ccccc1Nc1c(Cl)cccc1Cl` [DICLOFENAC] had a CLH in series [41] of 5.28 mL/h/kg. The amount remaining at 1 h, 2 uL in the series “in vitro [12]” came to 103%; in “in vitro [24]”, 5.4%. This molecule registered a microsomal CLint at 20 min, 2 uL in the series “in vitro [13]” of 97.7 µL/min/mg. The half-life at 2 uL in the series “in vitro [20]” was found to be 0.237 h.

For the origin of these results see ChEMBL document CHEMBL4270670 (J Med Chem, 2018).
